Data set [1] relates to C2C12 muscle cells. Nature of the data set: C2C12 proliferation, BrdU incorporation. Format: cell-based, mouse. The following applies: 500 cells per well; 0.1, 1, 10 and 100 ng/ml; stimulation 24 hours, BrdU 5 hours. Here is the method: (B) Peptides A2, A4, A6 and A8: C2C12 muscle cells at a 500 cells/well. Cultivation was carried out for 24 hours in 10% FBS, followed by starvation for 24 hours in 0.1% BSA, stimulation for 24 hours and then treatment with BrdU for 5 hours. Concentrations of 0.1, 1, 10 and 100 ng/ml of peptides A2, A4, A6 and A8 were tested, along with 0.1, 1, 10 and 100 ng/ml IGF-I (See the right-hand set of results). BrdU incorporation was measured to assess the level of cell proliferation achieved. Controls containing no cells, medium only, 5% FBS and no BrdU were also provided. Values on the Y-axis are for fluorescence (absorbence at 370 nm; mean plus standard error across 4 wells). The first column on the left relates to a control in which no cells were present. The next four relate to peptide A2 at concentrations of 0.1, 1, 10 and 100 ng/ml. The next four relate to peptide A4 at concentrations of 0.1, 1, 10 and 100 ng/ml. The central three relate to controls containing medium only (med), 5% FBS) and no BrdU. The next four relate to peptide A6 at concentrations of 0.1, 1, 10 and 100 ng/ml. The next four relate to peptide A8 at concentrations of 0.1, 1, 10 and 100 ng/ml. The right-hand group of results relate to IGF-I (See Example 1.5) at concentrations of 0.1, 1, 10 and 100 ng/ml.
The 8 amino acid peptides described in 1.3.2 above and referred to in FIG. 8B as A2, A4, A6 and A8 were tested for the ability to induce proliferation of C2C12 muscle cells at a density of 500 cells per well. Cultivation was carried out for 24 hours in 10% FBS, followed by starvation for 24 hours in 0.1% BSA, stimulation for 24 hours and then treatment with BrdU for 5 hours. Concentrations of 0.1, 1, 10 and 100 ng/ml of peptides A2, A4, A6 and A8 were tested, along with 0.1, 1, 10 and 100 ng/ml IGF-I (See the right-hand set of results in FIG. 8B). Incorporation of BrdU was measured to assess the level of cell proliferation achieved. Controls containing no cells, medium only, 5% FBS and no BrdU were also provided.
Background: Uptake of a labelled nucleoside into DNA is a usual measure of proliferation.

Data set [2] deals with C2C12 muscle cells. Nature of the data set: C2C12 proliferation, Alamar Blue assay. Format: cell-based, mouse. The following applies: 2000 cells per well; 2, 5, 50 and 100 ng/ml; medium with IGF-I 2 ng per ml; 36 hours. Here is the method: (A) DMGF and CMGF Peptides: C2C12 Cells were provided at 2000 cell/well, in a medium containing DMEM (1000 mg/L glucose), plus BSA(100 ug/ml), plus IGF-I (2 ng per ml) and incubated for 36 hours. Cell proliferation was then assessed using an Alamar Blue assay. […] Y-axis values are fluorescence (wavelength of excitation 535 nm, measurement at 590 nm; mean plus standard error) in an Alamar Blue assay.
The 8 amino acid peptides described in 1.3.1 above and referred to in FIG. 8A as DMGF and CMGF were tested for the ability to induce proliferation of C2C12 muscle cells at a density of 2000 cells per well in a medium containing DMEM (1000 mg/L glucose), BSA (10 ug/ml) and IGF-I (2 ng per ml). Concentrations of 2, 5, 50 and 100 ng/ml of DMGF and CMGF were tested (See the left-hand and middle sets of results in FIG. 8), along with 2, 5, 50 and 100 ng/ml IGF-I alone (See the right-hand set of results in FIG. 8). After 36 hours incubation, an Alamar Blue assay was used to assess the level of cell proliferation achieved. A control containing only the medium was also provided.
(In general: Alamar Blue is a resazurin reagent that responds to reducing activity.)

The subject of data set [3] is mononucleated myoblasts (satellite cells). Briefly: Myoblast replication, cell number by Alamar Blue method (0 to 3 scale). The format is cell-based. As for the experimental part: FIG. 2: Effect of Alanine substitution and C-terminal and N-terminal truncation on stability and biological activity—further sequence alignment, comparing modified sequences of Peptides 1-6 (SEQ ID NOS: 15-20) and Short peptides 1-4 (SEQ NOS: 21-24), and detailing impact of changes on stability as measured by incubation in human plasma and biological activity as measured by testing on muscle cell line (see Examples for details of test procedures).
In this regard, one method of assessing biological activity is the Alamar Blue method as discussed in Example 5.2.2. This involves contacting a polypeptide with mononucleated myoblast cells and assessing the extent to which it causes them to proliferate. This can be scored in any suitable way, e.g. on a scale of 0 to 3 as discussed in the Examples. Activity may also be measured via cyclins, such as cyclin ID, which are early markers of cell division. Activity may also be measured via the use of bromodeoxy uridine (BrdU).
Biological activity was determined using an in vitro system by measuring the ability of the C terminal peptides to induce mononucleated myoblasts (satellite cells) to replicate. Cell number was determined using the Alamar Blue method.

The nature of data set [4]: Stability to proteolytic cleavage in fresh human plasma, Western blotting.
Description: Western blotting was then used to assess the survival of each peptide over those time intervals: A=0 minutes; B=30 minutes; C=2 hours; D=24 hours.
Stability may be assessed in terms of half-life in human plasma or by any other suitable technique. In particular, stability can be measured by assessing peptides' susceptibility to proteolytic cleavage in fresh human plasma according to the technique of Example 5.1 below, in which the plasma was stored until used at −70° C., 10 μg of peptide was added to 2 ml of plasma, plus 7 ml of PBS and the mixture was incubated at 37° C. for different time intervals. Western blotting was then used to detect each peptide over those time intervals.
The plasma was stored until used at −70° C. 10 μg of peptide were added to 2 ml of plasma, plus 7 ml of PBS. This mixture was incubated at 37° C. for different time intervals.
Like biological activity, stability was scored on a scale of 0 to 3.
Stability was determined as the amount of the peptide that remained intact and bound to the specific antibody in the following way:

Where no end group is shown, it is not given here. [ ]: non-standard residue; d: D form. The star is where a group is joined. Hexanoyl = CCCCCC(=O)*; PEG = not defined here; Ahx = NCCCCCC(=O)O

For the substance “A2: Gly-Ser-Thr-Phe-Glu-Glu-Arg-Lys (SEQ ID NO:34), amidated at the C-terminus, unmodified at the N-terminus (H-GSTFEERK-NH2) [Peptide A2]”, the “proliferation of C2C12 cells (BrdU incorporation)” value in the data set with C2C12 muscle cells [1] is listed as “induced cell proliferation”.

In the case of “A4: Gly-Ser-Thr-Phe-Glu-Glu-Arg-Lys (SEQ ID NO:34), amidated at the C-terminus, hexanoic acid moiety at the N-terminus (Hexanoyl-GSTFEERK-NH2; SMILES CCCCCC(=O)NCC(=O)N[C@@H](CO)C(=O)N[C@H](C(=O)N[C@@H](Cc1ccccc1)C(=O)N[C@@H](CCC(=O)O)C(=O)N[C@@H](CCC(=O)O)C(=O)N[C@@H](CCCNC(=N)N)C(=O)N[C@@H](CCCCN)C(N)=O)[C@@H](C)O) [Peptide A4]”, the “proliferation of C2C12 cells (BrdU incorporation)” value in the data set with C2C12 muscle cells [1] is given as “induced cell proliferation”.

Regarding “A6: Gly-Ser-Thr-Phe-Glu-Glu-Arg-Lys (SEQ ID NO:34), amidated at the C-terminus, amino-hexanoic acid moiety at the N-terminus ([Ahx]GSTFEERK-NH2; N-terminus assumed; SMILES C[C@@H](O)[C@H](NC(=O)[C@H](CO)NC(=O)CNC(=O)CCCCCN)C(=O)N[C@@H](Cc1ccccc1)C(=O)N[C@@H](CCC(=O)O)C(=O)N[C@@H](CCC(=O)O)C(=O)N[C@@H](CCCNC(=N)N)C(=O)N[C@@H](CCCCN)C(N)=O) [Peptide A6]”, the “proliferation of C2C12 cells (BrdU incorporation)” value in the data set with C2C12 muscle cells [1] is reported as “induced cell proliferation”.

As to “A8: Gly-Ser-Thr-Phe-Glu-Glu-His-Lys (SEQ ID NO:33), amidated at the C-terminus, hexanoic acid at the N-terminus (Hexanoyl-GSTFEEHK-NH2; SMILES CCCCCC(=O)NCC(=O)N[C@@H](CO)C(=O)N[C@H](C(=O)N[C@@H](Cc1ccccc1)C(=O)N[C@@H](CCC(=O)O)C(=O)N[C@@H](CCC(=O)O)C(=O)N[C@@H](Cc1c[nH]cn1)C(=O)N[C@@H](CCCCN)C(N)=O)[C@@H](C)O) [Peptide A8]”, the “proliferation of C2C12 cells (BrdU incorporation)” value in the data set with C2C12 muscle cells [1] is “induced cell proliferation”.

In the case of “CMGF: Gly-Ser-Thr-Phe-Glu-Glu-His-Lys (SEQ ID NO:33), N-terminal hexanoic acid, amidated at the C-terminal end (Hexanoyl-GSTFEEHK-NH2; SMILES CCCCCC(=O)NCC(=O)N[C@@H](CO)C(=O)N[C@H](C(=O)N[C@@H](Cc1ccccc1)C(=O)N[C@@H](CCC(=O)O)C(=O)N[C@@H](CCC(=O)O)C(=O)N[C@@H](Cc1c[nH]cn1)C(=O)N[C@@H](CCCCN)C(N)=O)[C@@H](C)O)”, in the data set on C2C12 muscle cells [2], the “proliferation of C2C12 cells (Alamar Blue fluorescence)” value was “induced cell proliferation”.

As to “DMGF: Gly-Ser-Thr-Phe-Glu-Glu-His-Lys (SEQ ID NO:33), N-terminal PEGylation, amidated at the C-terminal end ({PEG}-GSTFEEHK-NH2; reading uncertain; also: printed as Gly-Ser-Thr-Phe-Glu-Glu-His-Lys)”, the “proliferation of C2C12 cells (Alamar Blue fluorescence)” value in the data set with C2C12 muscle cells [2] was “induced cell proliferation”.

On to “Short peptide 2: SEQ ID NO: 15 with Arg14→Ala and the four C-terminal amino acids removed (YQPPSTNKNTKSQARKGSTF)”, for which, in data set [3], the “biological activity score (scale of 0 to 3)” value (“biological activity score” for short) was “zero”.

Regarding “Short peptide 3: SEQ ID NO: 15 with Arg14→Ala and the three N-terminal amino acids removed (PSTNKNTKSQARKGSTFEEHK)”, in data set [3], the “biological activity score” value was “zero”.

“Short peptide 4: SEQ ID NO: 15 with Arg14→Ala and the five N-terminal amino acids removed (TNKNTKSQARKGSTFEEHK)”: the “biological activity score” value in data set [3] is given as “zero”.

As to YQPPSTNKNTKAQRRKGSTFEEHK [Peptide 3], the “biological activity score” value in data set [3] is 3 (significant increase in cell number at 1 h.).

As to YQPPSTNKNTKSQAAKGSTFEEHK [Peptide 6], the “biological activity score” value in data set [3] is “zero”.

On to YQPPSTNKNTKSQRRKGSTFEEHK [Peptide 1], for which the “stability score (scale of 0 to 3)” value in data set [4] (fresh human plasma, Western blotting, intact peptide bound to specific antibody) is 1 (marked loss of detectable antibody binding by ½ hours.). In addition, the “biological activity (in words)” value in data set [3] is “little or no activity”.

Regarding “YQPPSTNKNTKSQRRKGSTFEERK [native human MGF C terminal Ec peptide, reference compound]”, the “half-life in human plasma” value in data set [4] (human plasma) is on record as “short half-life”.
